Results reported in US20260224582A1, “Heterobicyclic amides as inhibitors of CD38” (Cerevance, Inc., priority 2022, published 2026).

Columns and labels:
Recombinant mouse CD38 = target: T1, Recombinant mouse CD38 (Mus musculus, UniProt P56528); test: Mouse CD38 hydrolase assay (fluorescence-based, ε-NAD substrate); type: biochemical; conditions: recombinant mouse CD38 0.4 nM, 12 μM ε-NAD, 30 min preincubation at 25° C.
T1 sequence (P56528 1-304): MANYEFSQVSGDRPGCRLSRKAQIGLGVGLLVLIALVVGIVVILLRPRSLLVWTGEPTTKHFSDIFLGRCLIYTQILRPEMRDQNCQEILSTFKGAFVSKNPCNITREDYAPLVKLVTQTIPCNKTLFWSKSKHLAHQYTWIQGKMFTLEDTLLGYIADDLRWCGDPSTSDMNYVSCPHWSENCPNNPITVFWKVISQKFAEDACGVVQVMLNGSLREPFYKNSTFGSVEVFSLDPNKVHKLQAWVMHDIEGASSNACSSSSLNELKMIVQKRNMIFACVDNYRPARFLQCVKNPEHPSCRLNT
Protocol: The ability of test compounds to inhibit mouse CD38 hydrolase activity was measured in a fluorescence-based assay using non-physiological NAD^+ substrate analogue 1,N^6-etheno NAD^+ (&-NAD). Recombinant mouse CD38 (0.4 nM) was preincubated with test compounds in 384-well black microplates for 30 min at 25° C. in PBS (—Ca^2+/Mg^2+) containing 0.005% BSA (pH 7.4). CD38 hydrolase activity was initiated by addition of 12 μM ε-NAD, which yields the fluorescent product 1,N^6-etheno ADP-ribose. Formation of fluorescent product was followed using ClarioStar Plus (BMG) microplate reader by reading fluorescence (excitation λ=300 nm; emission λ=410 nm) at two time points, one immediately after substrate addition (t=0) and one at 6 min (t=6).
Data was analysed by subtracting the values detected at t=0 from t=6 to correct for variation in baseline fluorescence. Fluorescence values were converted to percent inhibition using the average of high signal (CD38 and ε-NAD) and low signal (CD38 and ε-NAD in the presence of a tool CD38 inhibitor) control wells. IC50 values were determined from a 10-point, halflog concentration response curve with a four-parameter logistic equation.

Recombinant human CD38 = target: T2, Recombinant human CD38 (Homo sapiens, UniProt P28907); test: Human CD38 hydrolase assay (fluorescence-based, ε-NAD substrate); type: biochemical; conditions: recombinant human CD38 0.8 nM, 4 μM ε-NAD, 30 min preincubation at 25° C.
T2 sequence (P28907 1-300): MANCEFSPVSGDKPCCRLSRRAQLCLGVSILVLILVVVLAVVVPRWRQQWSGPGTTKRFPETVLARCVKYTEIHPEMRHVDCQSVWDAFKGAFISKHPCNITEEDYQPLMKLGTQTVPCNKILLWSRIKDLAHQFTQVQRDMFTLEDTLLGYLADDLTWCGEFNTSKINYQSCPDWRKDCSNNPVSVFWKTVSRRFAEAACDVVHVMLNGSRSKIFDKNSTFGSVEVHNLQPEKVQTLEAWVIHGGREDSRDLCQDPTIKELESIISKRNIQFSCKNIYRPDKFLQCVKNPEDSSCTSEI
Protocol: The ability of test compounds to inhibit human CD38 hydrolase activity was measured in a fluorescence-based assay using non-physiological NAD^+ substrate analogue 1,N^6-etheno NAD^+ (ε-NAD). Recombinant human CD38 (0.8 nM) was preincubated with test compounds in 384-well black microplates for 30 min at 25° C. in PBS (—Ca^2+/Mg^2+) containing 0.005% BSA (pH 7.4). CD38 hydrolase activity was initiated by addition of 4 μM ε-NAD, which yields the fluorescent product 1,N^6-etheno ADP-ribose. Formation of fluorescent product was followed using ClarioStar Plus (BMG) microplate reader by reading fluorescence (excitation λ=300 nm; emission λ=410 nm) at two time points, one immediately after substrate addition (t=0) and one at 10 min (t=10). Data was analysed by subtracting the values detected at t=0 from t=10 to correct for variation in baseline fluorescence. Fluorescence values were converted to percent inhibition using the average of high signal (CD38 and ε-NAD) and low signal (CD38 and ε-NAD in the presence of a tool CD38 inhibitor) control wells. IC50 values were determined from a 10-point, half log concentration response curve with a four-parameter logistic equation.

| IC50 (Recombinant mouse CD38) | IC50 (Recombinant human CD38) | SMILES |
| --- | --- | --- |
| ≤ 40 nM | ≤ 40 nM | O=C(N[C@H]1CC[C@H](N2CC[C@@H](O)C2)CC1)c1nc(-n2ccnc2)nn2cccc12 [Example 27, N-((1R,4r)-4-((R)-3-hydroxypyrrolidin-1-yl)cyclohexyl)-2-(1H-imidazol-1-yl)pyrrolo[2,1-f][1,2,4]triazine-4-carboxamide] |
| ≤ 40 nM | ≤ 10000 nM | O=C(N[C@H]1CC[C@H](N2CC[C@@H](F)C2)CC1)c1nc(-n2ccnc2)c2cccn2n1 [Example 28, N-((1R,4r)-4-((R)-3-fluoropyrrolidin-1-yl)cyclohexyl)-4-(1H-imidazol-1-yl)pyrrolo[2,1-f][1,2,4]triazine-2-carboxamide] |
| ≤ 40 nM | ≤ 100 nM | O=C(N[C@H]1CC[C@H](NCC(F)(F)F)CC1)c1nc(-c2cncs2)nn2cccc12 [Example 30, 2-(thiazol-5-yl)-N-((1r,4r)-4-((2,2,2-trifluoroethyl)amino)cyclohexyl)pyrrolo[2,1-f][1,2,4]triazine-4-carboxamide] |
| ≤ 40 nM | ≤ 40 nM | O=C(N[C@H]1CC[C@H](NCC(F)F)CC1)c1nc(-n2ccnc2)nn2cccc12 [Example 31, N-((1r,4r)-4-((2,2-difluoroethyl)amino)cyclohexyl)-2-(1H-imidazol-1-yl)pyrrolo[2,1-f][1,2,4]triazine-4-carboxamide] |
| ≤ 40 nM | ≤ 100 nM | O=C(N[C@H]1CC[C@H](N2CC[C@H](F)C2)CC1)c1nc(-n2ccnc2)nc2ncccc12 [Example 32, N-((1S,4r)-4-((S)-3-fluoropyrrolidin-1-yl)cyclohexyl)-2-(1H-imidazol-1-yl)pyrido[2,3-d]pyrimidine-4-carboxamide] |
| ≤ 40 nM | ≤ 100 nM | O=C(N[C@H]1CC[C@H](N2CC[C@@H](F)C2)CC1)c1cn2nccc2c(-n2ccnc2)n1 [Example 35, N-((1R,4r)-4-((R)-3-fluoropyrrolidin-1-yl)cyclohexyl)-4-(1H-imidazol-1-yl)pyrazolo[1,5-a]pyrazine-6-carboxamide] |
| ≤ 40 nM | ≤ 100 nM | O=C(N[C@H]1CC[C@H](N2CC[C@H](F)C2)CC1)c1cn2nccc2c(-n2ccnc2)n1 [Example 36, N-((1S,4r)-4-((S)-3-fluoropyrrolidin-1-yl)cyclohexyl)-4-(1H-imidazol-1-yl)pyrazolo[1,5-a]pyrazine-6-carboxamide] |
| ≤ 40 nM | ≤ 100 nM | O=C(N[C@H]1CC[C@H](NCC(F)F)CC1)c1cn2nccc2c(-n2ccnc2)n1 [Example 37, N-((1r,4r)-4-((2,2-difluoroethyl)amino)cyclohexyl)-4-(1H-imidazol-1-yl)pyrazolo[1,5-a]pyrazine-6-carboxamide] |
| ≤ 40 nM | ≤ 1000 nM | O=C(N[C@H]1CC[C@H](NCC(F)F)CC1)c1cn2ccnc2c(-n2ccnc2)n1 [Example 38, N-((1r,4r)-4-((2,2-difluoroethyl)amino)cyclohexyl)-8-(1H-imidazol-1-yl) imidazo[1,2-a]pyrazine-6-carboxamide] |
| ≤ 40 nM | ≤ 100 nM | O=C(N[C@H]1CC[C@H](N2CC[C@@H](F)C2)CC1)c1cn2ccnc2c(-n2ccnc2)n1 [Example 39, N-((1R,4r)-4-((R)-3-fluoropyrrolidin-1-yl)cyclohexyl)-8-(1H-imidazol-1-yl) imidazo[1,2-a]pyrazine-6-carboxamide] |
| ≤ 40 nM | ≤ 1000 nM | O=C(N[C@H]1CC[C@H](N2CC[C@H](F)C2)CC1)c1cn2ccnc2c(-n2ccnc2)n1 [Example 40, N-((1S,4r)-4-((S)-3-fluoropyrrolidin-1-yl)cyclohexyl)-8-(1H-imidazol-1-yl) imidazo[1,2-a]pyrazine-6-carboxamide] |
| ≤ 40 nM | ≤ 40 nM | Cc1cncn1-c1nc(C(=O)N[C@H]2CC[C@H](NCC(F)(F)F)CC2)c2cccn2n1 [Example 42, 2-(5-methyl-1H-imidazol-1-yl)-N-((1r,4r)-4-((2,2,2-trifluoroethyl)amino)cyclohexyl)pyrrolo[2,1-f][1,2,4]triazine-4-carboxamide] |
| ≤ 40 nM | ≤ 1000 nM | O=C(N[C@H]1CC[C@@H](N2CCCC2)CC1)c1nc(-n2ccnc2)nn2cccc12 [Example 44, 2-(1H-imidazol-1-yl)-N-((1s,4s)-4-(pyrrolidin-1-yl)cyclohexyl)pyrrolo[2,1-f][1,2,4]triazine-4-carboxamide] |
| ≤ 40 nM | ≤ 100 nM | CC1(F)CN([C@H]2CC[C@H](NC(=O)c3cn4ncnc4c(-n4ccnc4)n3)CC2)C1 [Example 46, N-((1r,4r)-4-(3-fluoro-3-methylazetidin-1-yl)cyclohexyl)-8-(1H-imidazol-1-yl)-[1,2,4]triazolo[1,5-a]pyrazine-6-carboxamide] |
| ≤ 40 nM | ≤ 100 nM | CN(CC(F)(F)F)[C@H]1CC[C@H](NC(=O)c2cn3ncnc3c(-n3ccnc3)n2)CC1 [Example 47, 8-(1H-imidazol-1-yl)-N-((1r,4r)-4-(methyl (2,2,2-trifluoroethyl)amino)cyclohexyl)-[1,2,4]triazolo[1,5-a]pyrazine-6-carboxamide] |
| ≤ 100 nM | ≤ 1000 nM | O=C(NC1CCN(CC(F)(F)F)CC1)c1cn2ncnc2c(-n2ccnc2)n1 [Example 50, 8-(1H-imidazol-1-yl)-N-(1-(2,2,2-trifluoroethyl)piperidin-4-yl)-[1,2,4]triazolo[1,5-a]pyrazine-6-carboxamide] |
| ≤ 40 nM | ≤ 1000 nM | O=C(N[C@H]1CC[C@H](N2CCS(=O)(=O)CC2)CC1)c1cn2ncnc2c(-n2ccnc2)n1 [Example 51, N-((1r,4r)-4-(1,1-dioxidothiomorpholino)cyclohexyl)-8-(1H-imidazol-1-yl)-[1,2,4]triazolo[1,5-a]pyrazine-6-carboxamide] |
| ≤ 40 nM | ≤ 100 nM | O=C(N[C@H]1CC[C@H](NCC(F)F)CC1)c1cn2ncnc2c(-n2ccnc2)n1 [Example 52, N-((1r,4r)-4-((2,2-difluoroethyl)amino)cyclohexyl)-8-(1H-imidazol-1-yl)-[1,2,4]triazolo[1,5-a]pyrazine-6-carboxamide] |
| ≤ 40 nM | ≤ 1000 nM | CC(C)(N[C@H]1CC[C@H](NC(=O)c2cn3ncnc3c(-n3ccnc3)n2)CC1)C(F)(F)F [Example 53, 8-(1H-imidazol-1-yl)-N-((1r,4r)-4-((1,1,1-trifluoro-2-methylpropan-2-yl)amino)cyclohexyl)-[1,2,4]triazolo[1,5-a]pyrazine-6-carboxamide] |
| ≤ 40 nM | ≤ 1000 nM | CO[C@@H]1CCN([C@H]2CC[C@@H](NC(=O)c3cn4ncnc4c(-n4ccnc4)n3)CC2)C1 [Example 54, 8-(1H-imidazol-1-yl)-N-((1S,4s)-4-((R)-3-methoxypyrrolidin-1-yl)cyclohexyl)-[1,2,4]triazolo[1,5-a]pyrazine-6-carboxamide] |
| ≤ 40 nM | ≤ 1000 nM | O=C(N[C@H]1CC[C@@H](N2CCSCC2)CC1)c1cn2ncnc2c(-n2ccnc2)n1 [Example 55, 8-(1H-imidazol-1-yl)-N-((1s,4s)-4-thiomorpholinocyclohexyl)-[1,2,4]triazolo[1,5-a]pyrazine-6-carboxamide] |
| ≤ 40 nM | ≤ 100 nM | O=C(N[C@H]1CC[C@H](N2CC(C(F)(F)F)C2)CC1)c1cn2ncnc2c(-n2ccnc2)n1 [Example 56, 8-(1H-imidazol-1-yl)-N-((1r,4r)-4-(3-(trifluoromethyl)azetidin-1-yl)cyclohexyl)-[1,2,4]triazolo[1,5-a]pyrazine-6-carboxamide] |
